# Experimental data as given in PMC10541411 (Nature Communications, 2023).
# Target: 53BP1^TT WT (Homo sapiens, UniProt Q12888)
# Assay: Small angle X-ray scattering (SAXS)
# Design: residues 1484-1603; made in house; host or cells: E. coli
# Procedure: SAXS measurements were performed at 10 °C and different concentrations (0.67, 1.33 and 2 mg/mL) of 53BP1^TT WT, free and in complex with 10-fold molar excess of UNC3474 or UNC1118, in 25 mM sodium phosphate, pH 7.5, 15 mM NaCl, as well as on control samples containing only the small molecule in the same buffer. SAXS data were collected at the Lawrence Berkeley National Laboratory SYBILS beamline 12.3.1 and analyzed using programs from the SAXS data analysis software ATSAS (version 2.4.2)[63],[64] including PRIMUS, GNOM, AUTOPOROD, GASBOR and CRYSOL. PRIMUS (version 3.0) was used for initial data processing. Radii of gyration (Rg) were calculated using the Guinier approximation. Distance distribution functions P(r) and maximum particle dimensions were computed using GNOM. Molecular volumes and weights were estimated using AUTOPOROD. Ab initio reconstructions of molecular envelopes were done using GASBOR 2.3i. CRYSOL was used to back calculate the scattering curves and determine the goodness of fit.
# Supplementary Table 1 | SAXS reporting data.
# Organism Homo Sapiens Homo Sapiens Homo Sapiens
# Source E. coli E. coli E. coli
# Solvent composition 25 mM sodium 25 mM sodium 25 mM sodium
# phosphate, pH 7.5, 15 phosphate, pH 7.5, 15 phosphate, pH 7.5, 15
# SAXS data collection parameters
# Source SIBYLS beamline 12.3.1 at the Advanced Light Source […]
# Beam geometry (size, sample-to-detector distance) 0.1 x 0.1 mm, 1.5 m
# Method for monitoring radiation damage Varied exposure lengths were compared against one another
# Exposure time, number of exposures 0.5 s, 1 s, 2 s exposures for each concentration
# Sample configuration A 1 mm sample was placed between two mica windows in a
# Software employed for SAXS data reduction, analysis and interpretation
# SAS data reduction Subtraction using established programs at SIBYLS beamline 12.3.1
# Basic analyses and merging of curves. PRIMUS from ATSAS 2.4.2
# Shape/bead modeling GASBOR 2.3i
# Sequence of 53BP1^TT WT (Q12888 1484-1603): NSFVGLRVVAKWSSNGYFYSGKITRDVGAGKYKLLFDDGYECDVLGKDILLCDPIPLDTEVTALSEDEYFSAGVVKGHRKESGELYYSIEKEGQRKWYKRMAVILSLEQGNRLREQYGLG
smiles,measurement,setting,value
CC(C)c1cccc(C(=O)NCCCNC(C)(C)C)c1 [UNC3474],"Rg, P(r) analysis, of 53BP1TT complex","10-fold molar excess of ligand, free 53BP1TT 18.85 ± 0.069",20.18 ± 0.038 Å
same,"Rg, Guinier analysis, of 53BP1TT complex","10-fold molar excess of ligand, free 53BP1TT 19.1 ± 0.2",20.1 ± 0.1 Å
same,"dmax, P(r) analysis, of 53BP1TT complex","10-fold molar excess of ligand, free 53BP1TT 62.5",69.4 Å
same,Porod volume of 53BP1TT complex,"10-fold molar excess of ligand, free 53BP1TT 21822",37692 Å3
same,changes in SAXS data upon complex formation,"10-fold molar excess of small molecule, 10 °C",agreed well with 53BP1^TT homodimerization
